Data set [1] has as its system SH-SY5Y cells. As to the kind of experiment: Intracellular reactive oxygen species levels (H2-DCFDA probe). The settings on record: 6 h treatment at LC50. In kind it is cell-based, human. On the procedure:
Reactive oxygen species (ROS) production was determined by evaluating ROS levels after exposure to cathinones at concentrations corresponding to their LC50 for 6 h. SH-SY5Y cells were washed with 1× PBS and incubated with 100 µL of 2′,7′-dichlorodihydrofluorescein diacetate (H2-DCFDA) (20 µM) in medium without FBS, for 60 min at 37 °C in the dark. Subsequently, the cells were washed with 1× PBS (1×), and the cells were maintained for 30 min at room temperature in 100 µL of PBS. After this time, ROS levels were determined by measuring fluorescence (excitation wavelength (λ): 495 nm; emission λ: 527 nm). Ascorbic acid (A.A) (100 µg/mL) served as the negative control and, hydrogen peroxide (H2O2) (200 µM) was used as the positive control. Results were expressed as a percentage relative to the control. All data were derived from at least three independent experiments (n = 3) and presented as mean ± standard error of the mean (SEM).

The nature of data set [2]: MTT cytotoxicity assay on differentiated SH-SY5Y cells. In kind it is cell-based, human. The settings on record: human, differentiated SH-SY5Y, 0.05–5 mM, MTT reduction assay, Hill fit, read-out: LC50. On the procedure:
(§1) The SH–SY5Y cell line (DSMZ code: ACC 209) was supplied by the German Collection of Microorganisms and the Cell Culture GmbH (DSMZ) biobank and was cultured according to the supplier’s information. Cells were grown in DMEM:F12 (Dulbecco’s Modified Eagle’s Medium/F12), supplemented with 10% fetal bovine serum (FBS) and 1% antibiotic–antimycotic in a humidified atmosphere with 5% CO2 at 37 °C. Subculture was performed according to biobank instructions when the cultures reached 80–85% of confluence.
(§2) SH-SY5Y cells were trypsinized (trypsin/EDTA; 0.25%) and the cell suspension was seeded in 96-well plates at a density of 2 × 10^4 cells/well and incubated until reaching 80-85% confluence. Cells were differentiated to obtain a dopaminergic neuronal phenotype according to Ferreira et al. with slight modifications (Figure 10). To ensure reproducibility and optimal neuronal differentiation, cells were used between passages (15–25). Briefly, cells were seeded in complete DMEM:F12 medium containing 10 µM retinoic acid (RA) and 2.5% fetal bovine serum (FBS) and maintained for 4 days, with the medium changed on day 2. After this time, the medium was replaced by DMEM:F12 supplemented with 10 µM RA, 80 nM 12-O-tetradecanoylphorbol-13-acetate (TPA), and 2.5% FBS, and the cells were maintained for an additional 4 days (with the medium changed at day 6). The cytotoxicity assay was performed on day 8.
(§3) The SH-SY5Y cells’ viability was evaluated after exposure for 24 h to […]. The 3-(4,5-dimethylthiazol-2-yl) − 2,5-diphenyltetrazolium bromide (MTT) colorimetric assay was performed following the methodology described by Joana Silva et al.. The experimental dose–response results were fitted to the Hill’s sigmoidal non-linear regression model. For each cathinone, the LC50 values (cathinone concentration showing 50% lethality) and their confidence interval at the 95% confidence level ([CI]) were determined. The Hill slope, also known as the Hill coefficient, which describes the steepness of a dose–response curve, and the minimum observable adverse effect concentration (LOAEL) were also determined for all cathinones.

The subject of data set [3] is differentiated SH-SY5Y cells. The description is as above. In kind it is cell-based, human. The settings on record: lowest observed adverse effect level, differentiated SH-SY5Y, 24 h, MTT. The procedure:
as §1, §2, §3

The target in data set [4] is T1, Acetylcholinesterase (AChE, EC 3.1.1.7) (Electrophorus electricus, UniProt O42275).
T1 construct: purchased Sigma-Aldrich
As to the kind of experiment: Acetylcholinesterase inhibition, modified Ellman colorimetric method. The data set is classed as biochemical. The settings on record: for Hillslope: AChE inhibition dose–response curve; for LOAEL: AChE inhibition; for LOAEL / pIC50: Ellman assay; for pIC50: IC50, AChE inhibition, 0.03–2 mM, Hill fit. On the procedure:
Acetylcholinesterase (AChE, EC 3.1.1.7) enzymatic activity was assessed using a modified version of Ellman’s colorimetric method, as described by Falé et al.. In this assay, a mixture of 325 μL of 50 mM Tris-HCl buffer (pH 8), 100 μL of a cathinone solution, and 25 μL of AChE (0.1 U/mL in 50 mM Tris–HCl buffer pH 8) were incubated. After a 15 min incubation period, 75 μL of AChI (0.33 mg/mL) was added to 475 μL of DTNB (dithiobis (2-nitrobenzoic acid)) (1.2 mg/mL in Tris–HCl buffer (pH 8) containing 0.1 M NaCl and 0.02 M MgCl2). A control reaction, representing 100% activity, was performed using the same volume of water instead of the cathinone solution. The initial velocity of the enzymatic reaction was measured at 405 nm for 5 min, with all assays carried out in duplicate. The percentage of AChE activity inhibition for different concentrations of cathinones [0.03–2 mM] was determined as the ratio of the initial velocity in the cathinone presence to the initial velocity of the control reaction. Experimental results were fitted to Hill’s sigmoidal dose–response non-linear regression model to determine IC50 values (cathinone concentration showing 50% inhibition), along with their confidence interval at the 95% confidence level ([CI]). The Hill slope coefficients that provide the steepest value of the slope of the dose–response curve and the minimum observable adverse effect concentration (LOAEL) for all cathinones were also determined.
A general note: DTNB colorimetry detects thiols as they appear.

For data set [5], the system named is SH-SY5Y cells. As to the kind of experiment: Mitochondrial membrane potential (JC-1 probe). In kind it is cell-based, human. To be noted: 6 h treatment at LC50, JC-1. The procedure:
Mitochondrial membrane potential (MMP) was estimated by using the JC-1 fluorescent probe (Molecular Probes, Eugene, OR, USA) as described in Silva et al., 2022 [65]. The formation of JC-1 aggregates (excitation λ: 490 nm; emission λ: 590 nm) and monomers (excitation λ: 490 nm; emission λ: 530 nm) was measured for 30 min using a plate reader (Bio-Tek Synergy plate reader, Bedfordshire, UK). Changes in MMP were calculated as the ratio between JC-1 monomers and aggregates and expressed as a percentage of the control. An FCCP (2.5 µM) and oligomycin A (1 mg/mL) conjugate solution was used as the positive control. All data were obtained from at least three independent experiments (n = 3) and were presented as mean ± standard error of the mean (SEM).

pIC50: −log10 of the molar value. “And” between values parts separate entries of the source, which are not always exact repeats. Identical values can stand only once.

One may read the LOAEL as the lowest tested level that showed an adverse finding. Usually pIC50 stands for the negative decadic logarithm of the IC50, by convention in mol/L. Read a high pIC50 as a small IC50. Broadly, the inhibition is the change of the read-out against control, counted positive when it falls. Low values mean a weak effect, high ones a strong effect.

T1 sequence (O42275 24-633): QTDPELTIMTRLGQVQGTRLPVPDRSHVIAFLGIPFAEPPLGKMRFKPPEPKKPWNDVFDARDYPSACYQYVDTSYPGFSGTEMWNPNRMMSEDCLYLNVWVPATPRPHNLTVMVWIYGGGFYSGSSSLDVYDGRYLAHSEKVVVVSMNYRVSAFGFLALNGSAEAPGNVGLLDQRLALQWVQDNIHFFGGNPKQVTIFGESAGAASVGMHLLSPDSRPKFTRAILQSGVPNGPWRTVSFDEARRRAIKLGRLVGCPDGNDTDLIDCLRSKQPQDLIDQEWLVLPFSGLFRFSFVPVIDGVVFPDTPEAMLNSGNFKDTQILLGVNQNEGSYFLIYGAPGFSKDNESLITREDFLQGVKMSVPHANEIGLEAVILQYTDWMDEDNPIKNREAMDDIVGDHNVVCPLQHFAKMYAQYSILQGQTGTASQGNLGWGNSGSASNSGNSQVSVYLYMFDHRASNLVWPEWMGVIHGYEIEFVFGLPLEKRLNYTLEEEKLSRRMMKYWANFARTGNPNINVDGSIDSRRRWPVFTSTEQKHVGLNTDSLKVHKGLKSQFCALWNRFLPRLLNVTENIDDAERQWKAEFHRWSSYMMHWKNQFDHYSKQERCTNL

For `CC(NC(C)(C)C)C(=O)c1ccc(Cl)cc1` (racemic) [4-Cl-TBC (20), (R,S)-2-(tert-butylamino)-1-(4-chlorophenyl)propan-1-one], the “increase in ROS production compared to the vehicle” value in the data set with SH-SY5Y cells [1] is recorded as 30%. The CC50 at 24 h in data set [2] amounted to 1300 µM. This compound returned an LOAEL in data set [3] of 0.5 mM. In data set [4], this compound had a Hillslope of 2.7, an LOAEL of 0.500 mM and a negative logarithm of the IC50 (pIC50) of about 2.70. Testing at 2000 µM in data set [4] (highest tested concentration of 2 mM) gave an inhibition of 48%.
Turning to `CCCCNC(C)C(=O)c1cccc(Cl)c1` (racemic) [3-CBC (7), (R,S)-2-(butylamino)-1-(3-chlorophenyl)propan-1-one], the “MMP depolarization” value in the data set on SH-SY5Y cells [5] is given as “more pronounced MMP depolarization than the other cathinones”. Besides, the CC50 at 24 h in data set [2] worked out at 700 µM. The LOAEL in data set [3] is listed as 0.1 mM. In data set [4], this compound gave a Hillslope of 1.4, an LOAEL of 0.125 mM and a negative-log IC50 (pIC50) of 3.40.
In the case of `CCN(CC)C(C)C(=O)c1cccc(Cl)c1` (racemic) [3-Cl-DEC (15), (R,S)-1-(3-chlorophenyl)-2-(diethylamino)propan-1-one], the “MMP depolarization” value with SH-SY5Y cells [5] was “more pronounced MMP depolarization than the other cathinones”. For the same compound, the “significant increase in ROS production compared to vehicle” value in the data set with SH-SY5Y cells [1] was “exception”. Besides, in data set [2], the CC50 at 24 h was found to be 1200 µM. Further, the LOAEL in data set [3] was 1 mM and 1.0 mM. Also, the “maximum inhibition of AChE among the tested concentrations” value in data set [4] (0.03 to 2 mM) is given as 87%. In data set [4], this compound gave a Hillslope of 0.9, an LOAEL of 0.063 mM and a pIC50 of 3.52.
Consider `CCCCNC(C)C(=O)c1ccc(Cl)cc1` (racemic) [4-CBC (8), (R,S)-2-(butylamino)-1-(4-chlorophenyl)propan-1-one], for which, in the data set with SH-SY5Y cells [5], the “MMP depolarization” value is “more pronounced MMP depolarization than the other cathinones”. Further, the CC50 at 24 h in data set [2] was determined as 600 µM. The same compound had an LOAEL in data set [3] of 0.5 mM. Besides, in data set [4], the Hillslope was 5.1, the LOAEL came to 0.100 mM and the pIC50 is 2.89.

Source of the values: publication PMC12027149 (International Journal of Molecular Sciences, 2025).
